Assay results published in paper PMC11509018, “Evaluation of the Role of Tanshinone I in an In Vitro System of Charcot-Marie-Tooth Disease Type 2N” (International Journal of Molecular Sciences, 2024).

Biological target: T1, AlaRS G102R binding to Nrp1 (Homo sapiens, UniProt P49588, G102R)
T1 construct: expressed in transfected cells
T1 sequence (P49588 1-968 G102R): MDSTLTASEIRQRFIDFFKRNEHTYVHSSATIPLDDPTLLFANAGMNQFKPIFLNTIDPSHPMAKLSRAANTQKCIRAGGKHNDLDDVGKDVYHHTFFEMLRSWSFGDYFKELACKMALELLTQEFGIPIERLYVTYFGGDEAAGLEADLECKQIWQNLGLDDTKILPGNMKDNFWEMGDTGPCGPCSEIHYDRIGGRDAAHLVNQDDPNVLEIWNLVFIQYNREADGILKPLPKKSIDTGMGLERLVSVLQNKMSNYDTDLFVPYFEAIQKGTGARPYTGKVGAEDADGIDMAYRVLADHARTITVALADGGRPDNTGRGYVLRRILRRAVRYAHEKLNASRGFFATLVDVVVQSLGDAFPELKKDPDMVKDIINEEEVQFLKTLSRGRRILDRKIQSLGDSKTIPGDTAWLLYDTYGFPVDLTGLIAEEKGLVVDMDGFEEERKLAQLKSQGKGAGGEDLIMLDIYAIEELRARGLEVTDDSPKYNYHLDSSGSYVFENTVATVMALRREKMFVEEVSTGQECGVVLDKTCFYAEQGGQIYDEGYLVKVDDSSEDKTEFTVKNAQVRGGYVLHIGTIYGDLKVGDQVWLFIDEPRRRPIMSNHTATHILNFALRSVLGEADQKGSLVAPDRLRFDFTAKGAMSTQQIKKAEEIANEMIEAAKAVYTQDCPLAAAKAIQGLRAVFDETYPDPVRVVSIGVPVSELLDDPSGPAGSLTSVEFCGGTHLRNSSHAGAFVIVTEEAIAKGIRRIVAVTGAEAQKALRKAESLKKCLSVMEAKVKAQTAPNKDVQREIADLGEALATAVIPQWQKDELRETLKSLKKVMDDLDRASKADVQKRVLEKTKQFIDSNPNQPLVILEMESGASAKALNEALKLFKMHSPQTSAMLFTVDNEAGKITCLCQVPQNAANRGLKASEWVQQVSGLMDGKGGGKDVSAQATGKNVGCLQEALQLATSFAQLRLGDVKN
Test: Co-IP of HA-AlaRS mutant with Nrp1 in transfected cells
Assay type: cell-based
Details: 20 µM Tanshinone I for 24 h, ImageJ, average of three repeats
Method: To further investigate whether Tanshinone I-induced conformational changes in AlaRS CMT mutants affect their interaction with Nrp1, Co-IP experiments were performed in cells treated with Tanshinone I. By comparing Co-IP results obtained before and after treatment, we assessed the influence of the drug on the binding strength and mode between the AlaRS CMT mutants and Nrp1. […] To confirm the direct effect of Tanshinone I on the interaction between AlaRS CMT mutants and Nrp1, pull-down experiments were performed. […] Given that the interaction between AlaRS mutants and Nrp1 is associated with disease progression in CMT, the ability of Tanshinone I to disrupt this binding highlights its potential to intervene in the pathogenic mechanisms of these diseases.
Figure 7 The impact of Tanshinone I on the interaction between AlaRS mutants and Nrp1. (A) Co-IP assays were conducted to assess the binding between HA-AlaRS mutants and Nrp1, both with and without treatment with 20 µM Tanshinone I for 24 h. […] (C) Pull down assay was performed to detect the binding between AlaRS mutants and GST-Nrp1 b1 with or without 20 µM Tanshinone I. (D) Relative quantification statistics of the AlaRS mutants pulled down from the GST pull down experiments after Tanshinone I treatment were performed using ImageJ. (E) The cell viability of 293T and NSC34 cells treated with different concentrations of Tanshinone I was assessed using the CCK-8 assay over a 24 h period. TEXT PRINTED IN THE PICTURE: (B) Tanshinone I: Mean density band (N71Y): 0.60; Mean density band (G102R): 0.53; Mean density band (R326W): 0.50; Mean density band (R329H): 0.50; Mean density band (E337K): 0.62 | (D) Tanshinone I: Mean density band (N71Y): 0.82; Mean density band (G102R): 0.76; Mean density band (R326W): 0.84; Mean density band (R329H): 0.84; Mean density band (E337K): 0.90
Total protein was extracted from cells using RIPA buffer (50 mM Tris-HCl pH 7.4, 150 mM NaCl, 1% NP40, 1 mM EDTA) supplemented with a protease and phosphatase inhibitor cocktail (Roche, Basel, Switzerland). After SDS-PAGE, the protein on the gel was transferred to a PVDF membrane (Bio-Rad, Hercules, CA, USA) and then blocked with 5% non-fat dry milk in TBST for 1 h. Then, the membranes were incubated with the indicated primary antibodies and corresponding HRP-conjugated secondary antibodies. Signals were detected using the Bio-Rad ChemiDoc system (Bio-Rad, Shanghai, China). The following antibodies were used: Flag (Ray antibody biotech, Beijing, China, 1:3000), HA (Ray antibody biotech, Beijing, China, 1:3000), and GAPDH (Ray antibody biotech, Beijing, China, 1:5000).
To detect the binding of Nrp1 and AlaRS mutants in cells, whole-cell lysates (500 μg) were treated overnight with 2 μg of anti-Flag antibody in RIPA buffer. Next, Protein A/G agarose beads (#sc-2003, Santa Cruz Biotechnology, Santa Cruz, CA, USA) were applied to the lysates and the samples were further treated for 8–12 h with rotation. Samples were washed three times with RIPA buffer. Subsequently, the immunoprecipitations were resuspended into 2 × SDS-loading buffer. The samples were then boiled for 10 min and detected using Western blot. The experiment was repeated three times.

Mean density band (G102R), relative quantification of AlaRS mutant immunoprecipitated: 0.53
Compound: Cc1coc2c1C(=O)C(=O)c1c-2ccc2c(C)cccc12 [Tanshinone I]
